Laboratory results: US20260166122A1, “USE OF MICROPEPTIDE MIAC” (NANJING ANJI BIOTECHNOLOGY CO., LTD, priority 2023, published 2026)
Where two headings read alike, the source gives them in different places. Marks after values point to notes of the source that are not given here. Ends that are not written are not given here.

Key:
Format in all cases: cell-based
Conditions in all cases: 72 h
[1] = test system: human breast cancer cells MDA-MB-231
[2] = test system: human malignant melanoma cells A375
Protocol: (§1) Human pancreatic cancer, hepatocellular carcinoma, colorectal cancer, ovarian cancer, cervical cancer, bladder cancer, melanoma, glioblastoma, neuroblastoma, glioma, osteosarcoma, myeloma, lymphoma, hematologic malignancies, and cholangiocarcinoma cells were cultured in an incubator at 37° C. with 5% CO2 until the density reached 90%, then digested and collected with trypsin, resuspended in a culture medium, and counted under a microscope; the cell concentration was adjusted to about 1.0×10^5 cells/mL; and the cell suspension was inoculated into a 96-well plate, with 100 μL per well, and incubated overnight in an incubator at 37° C. with 5% CO2. After the cells were completely attached to the wall, 100 μL of micropeptides MIAC with concentrations of 50 μM, 100 μM and 200 μM were added to form an administration group; and a culture medium without any medicament was used as a negative control group. After continuing incubation for 72 h, 100 μL of CCK8 was added to each well of the 96-well plate for dissolving. The absorbance OD was measured at a detection wavelength of 450 nm with a microplate reader, and the proliferation inhibition (PI) was calculated using the formula of PI (%)=1-administration group/negative control group. The experiment was repeated 3 times independently, the results were expressed as Mean±SD, and a statistical T test was performed, where *P<0.05 indicated a significant difference and **P<0.01 indicated an extremely significant difference.

[3] = test system: human bladder transitional cell carcinoma cells T24
Protocol: as §1

[4] = test system: human colon cancer cells SW480
Protocol: as §1

[5] = test system: human hepatocellular carcinoma cells HCCLM3
Protocol: as §1

[6] = test system: human pancreatic cancer cells Aspc-1
Protocol: as §1

[7] = test system: human ovarian cancer cells A2780
Protocol: as §1

[8] = test system: human ovarian cancer cells SKOV3
Protocol: as §1

[9] = test system: human neuroblastoma cells SH-SY5Y
Protocol: as §1

[10] = test system: human hepatocellular carcinoma cells SMMC-7721
Protocol: as §1

[11] = test system: human cerebral astrocytic glioblastoma cells U87-MG
Protocol: as §1

[12] = test system: human glioma cells SHG-44
Protocol: as §1

[13] = test system: human colon cancer cells HCT-116
Protocol: as §1

[14] = test system: human lymphoma cells Raji
Protocol: as §1

[15] = test system: human pancreatic cancer cells PANC-1
Protocol: as §1

[16] = test system: human diffuse large B-cell lymphoma cells OCI-LY10
Protocol: as §1

[17] = test system: human T-cell acute lymphoblastic leukemia cells JurKat
Protocol: as §1

[18] = test system: human cervical cancer cells Hela
Protocol: as §1

[19] = test system: human acute promyelocytic leukemia cells NB4
Protocol: as §1

[20] = test system: human diffuse large B-cell lymphoma cells U2932
Protocol: as §1

MERAGVPGFSPRRSSVEAKMQSTSCSVRKSSTVTAWPAVVLLLSWGQRRGG [MIAC, micropeptide inhibiting actin cytoskeleton]
OD ([1]; MDA-MB-231, 50 μM): 0.777 ± 0.050 | OD ([1]; MDA-MB-231, 100 μM): 0.378 ± 0.058 | OD ([1]; MDA-MB-231, 200 μM): 0.206 ± 0.016 | OD ([2]; A375, 50 μM): 1.310 ± 0.069** | OD ([2]; A375, 100 μM): 1.194 ± 0.043** | OD ([2]; A375, 200 μM): 0.911 ± 0.071** | OD ([3]; T24, 50 μM): 1.125 ± 0.010 | OD ([3]; T24, 100 μM): 0.730 ± 0.085** | OD ([3]; T24, 200 μM): 0.364 ± 0.043** | OD ([4]; SW480, 50 μM): 0.640 ± 0.032** | OD ([4]; SW480, 100 μM): 0.283 ± 0.007** | OD ([4]; SW480, 200 μM): 0.147 ± 0.016** | OD ([5]; HCCLM3, 50 μM): 1.420 ± 0.054 | OD ([5]; HCCLM3, 100 μM): 0.981 ± 0.019** | OD ([5]; HCCLM3, 200 μM): 0.706 ± 0.041** | OD ([6]; Aspc-1, 50 μM): 0.939 ± 0.015 | OD ([6]; Aspc-1, 100 μM): 0.711 ± 0.047** | OD ([6]; Aspc-1, 200 μM): 0.509 ± 0.019** | OD ([7]; A2780, 50 μM): 0.985 ± 0.046** | OD ([7]; A2780, 100 μM): 0.791 ± 0.067** | OD ([7]; A2780, 200 μM): 0.441 ± 0.018** | OD ([8]; SKOV3, 50 μM): 1.244 ± 0.282** | OD ([8]; SKOV3, 100 μM): 0.843 ± 0.049** | OD ([8]; SKOV3, 200 μM): 0.727 ± 0.038** | OD ([9]; 50 μM): 1.033 ± 0.022 | OD ([9]; 100 μM): 0.822 ± 0.108** | OD ([9]; 200 μM): 0.665 ± 0.011** | OD ([10]; SMMC-7721, 50 μM): 1.292 ± 0.012 | OD ([10]; SMMC-7721, 100 μM): 1.032 ± 0.011** | OD ([10]; SMMC-7721, 200 μM): 0.674 ± 0.033** | OD ([11]; 50 μM): 0.951 ± 0.019 | OD ([11]; 100 μM): 0.785 ± 0.029** | OD ([11]; 200 μM): 0.656 ± 0.030** | OD ([12]; SHG-44, 50 μM): 1.201 ± 0.026 | OD ([12]; SHG-44, 100 μM): 0.838 ± 0.067** | OD ([12]; SHG-44, 200 μM): 0.393 ± 0.021** | OD ([13]; HCT-116, 50 μM): 1.253 ± 0.019** | OD ([13]; HCT-116, 100 μM): 0.976 ± 0.038** | OD ([13]; HCT-116, 200 μM): 0.688 ± 0.047** | OD ([14]; 50 μM): 0.964 ± 0.037 | OD ([14]; 100 μM): 0.687 ± 0.019** | OD ([14]; 200 μM): 0.421 ± 0.029** | OD ([15]; PANC-1, 50 μM): 1.027 ± 0.073 | OD ([15]; PANC-1, 100 μM): 0.708 ± 0.043** | OD ([15]; PANC-1, 200 μM): 0.427 ± 0.02** | OD ([16]; OCI-LY10, 50 μM): 0.719 ± 0.028** | OD ([16]; OCI-LY10, 100 μM): 0.598 ± 0.033** | OD ([16]; OCI-LY10, 200 μM): 0.376 ± 0.019** | OD ([17]; 50 μM): 0.984 ± 0.032 | OD ([17]; 100 μM): 0.730 ± 0.032** | OD ([17]; 200 μM): 0.559 ± 0.038** | OD ([18]; 50 μM): 0.954 ± 0.041** | OD ([18]; 100 μM): 0.801 ± 0.039** | OD ([18]; 200 μM): 0.532 ± 0.066** | OD ([19]; NB4, 50 μM): 1.177 ± 0.042** | OD ([19]; NB4, 100 μM): 0.826 ± 0.066** | OD ([19]; NB4, 200 μM): 0.624 ± 0.052** | OD ([20]; U2932, 50 μM): 0.426 ± 0.019** | OD ([20]; U2932, 100 μM): 0.275 ± 0.038** | OD ([20]; U2932, 200 μM): 0.167 ± 0.025**
